Assay results published in paper PMC7723077, “Spatial Profiles of Phosphate in Roots Indicate Developmental Control of Uptake, Recycling, and Sequestration” (Plant Physiology, 2020).

Molecular target: T1, cpFLIPPi-5.3m
T1 construct: gene PiBP
Conditions: in vivo, root epidermal cells of transition zone; injection buffer 50 mM MOPS-KOH pH 7.3, 0.5 mM MgCl2, total K+ 75 mM

`O=P(O)(O)O` [Pi, inorganic phosphate] gave a Kd of 7.4 ± 1.7 mM.
